Measured values from patent publication US20100069395A1, “Pyrazolo[1,5-a]pyrimidine-3-carboxylic acid compounds as protein kinase inhibitors” (priority 2006, published 2010).

Row | SMILES | melting point
1 | Cc1ccc(C(=O)Nc2cccc(C(F)(F)F)c2)cc1NC(=O)c1cnc2ccnn2c1 [Example 1, Pyrazolo[1,5-a]pyrimidine-6-carboxylic acid[2-methyl-5-(3-trifluoromethyl-phenylcarbamoyl)-phenyl]-amide] | 222 to 224 °C
2 | Cc1ccc(NC(=O)c2cccc(C(F)(F)F)c2)cc1NC(=O)c1cnc2ccnn2c1 [Example 2, Pyrazolo[1,5-a]pyrimidine-6-carboxylic acid[2-methyl-5-(3-trifluoromethyl-benzoylamino)-phenyl]-amide] | 239 to 241 °C
3 | Cc1ccc(C(=O)Nc2cccc(C(F)(F)F)c2)cc1NC(=O)C1=CNc2ccnn2C1 [Example 3, 4,7-Dihydro-pyrazolo[1,5-a]pyrimidine-6-carboxylic acid [2-methyl-5-(3-trifluoromethyl-phenylcarbamoyl)-phenyl]-amide] | 259 to 263 °C
4 | Cc1cccc(C)c1NC(=O)c1cnc2c(-c3cccc(N4CCN(C)CC4)c3)cnn2c1 [Example 4, 3-[3-(4-Methyl-piperazin-1-yl)-phenyl]-pyrazolo[1,5-a]pyrimidine-6-carboxylic acid(2,6-dimethyl-phenyl)-amide] | 227 to 229 °C
5 | COc1ccc(-c2cnn3cc(C(=O)Nc4c(C)cccc4C)cnc23)cc1OC [Example 5, 3-(3,4-Dimethoxy-phenyl)-pyrazolo[1,5-a]pyrimidine-6-carboxylic acid (2,6-dimethylphenyl)-amide] | 230 to 232 °C
6 | Cc1ccc(NC(=O)c2ccc(F)c(C(F)(F)F)c2)cc1NC(=O)c1cnc2ccnn2c1 [Example 6, Pyrazolo[1,5-a]pyrimidine-6-carboxylic acid[5-(4-fluoro-3-trifluoromthyl-benzoylamino)-2-methyl-phenyl]-amide] | 267 to 269 °C
7 | COc1ccc(C(=O)Nc2ccc(C)c(NC(=O)c3cnc4ccnn4c3)c2)cc1C(F)(F)F [Example 7, Pyrazolo[1,5-a]pyrimidine-6-carboxylic acid[5-(4-methoxy-3-trifluoromethyl-benzoylamino)-2-methyl-phenyl]-amide] | 256 to 258 °C
